Measured values from BigSolDB 2.1.

Nc1cccc2c1CN(C1CCC(=O)NC1=O)C2=O (stereo not given)
solubility (mole fraction)
Conditions | 293.15 K | 298.15 K | 303.15 K | 308.15 K | 313.15 K | 318.15 K | 323.15 K | 328.15 K | 333.15 K
in acetonitrile | 0.000539 | 0.000549 | 0.000561 | 0.000573 | 0.000588 | 0.000603 | 0.000618 | 0.000634 | 0.000652
in ethanol | 0.000164 | 0.000183 | 0.000209 | 0.000238 | 0.00027 | 0.000309 | 0.000357 | 0.000404 | 0.00046
in ethyl acetate | 0.000127 | 0.000144 | 0.000164 | 0.000184 | 0.00021 | 0.000239 | 0.000277 | 0.000319 | 0.000367
in isopropanol | 6.37e-05 | 7.79e-05 | 9.5e-05 | 0.000116 | 0.000141 | 0.000168 | 0.000195 | 0.000231 | 0.000271
in methanol | 0.000252 | 0.000269 | 0.000288 | 0.000309 | 0.000332 | 0.000359 | 0.000394 | 0.000434 | 0.00048
